In patent US11059778B2, “Cannabinoid receptor CB2 ligand 4-(aminomethyl)-N, N-dialkylanilines” (UNIVERSITY OF PITTSBURGH—OF THE COMMONWEALTH SYSTEM OF …, priority 2015, dated 2021):
pKi: −log10 of the molar value.

Key:
[1] = target: T1, CHO cells expressing human CB2 receptors (Homo sapiens, UniProt P34972); test: cell-based LANCE cAMP assay; settings: forskolin-stimulated, RO-20-1724 present, FIG. 4
T1 construct: expressed in transfected cells; host or cells: CHO cells, stably transfected
Method: FIG. 4 relates to cAMP Assay Results. LANCE signal of CB2 ligands. Stably transfected CHO cells expressing human CB2 receptors were utilized to carry out the LANCE cAMP assay. […] Data is mean±SEM of all experiments of two or more performed in triplicate.
(§1) The antibodies are labeled with Alexa Fluor dye that is sensitive to energy emissions. Briefly, the cell-based LANCE cAMP assays were performed on 384-well ProxiPlates using CHO cells stably expressing the CB2 receptors at density of 2×10^3 cells per well in 5 μL of RPMI-1640 medium (Gibco Laboratories, Grand Island, N.Y.) containing 1% dialyzed FBS, 25 mM HEPES, […], and 200 μg/ml of […]. After incubation overnight, 2.5 μL of cAMP antibody and RO20-1724 (a phosphodiesterase inhibitor) in stimulation buffer (DPBS 1×, containing 0.1% BSA) was added to each well, followed by the addition of 2.5 μL of the compound plus the forskolin complex (an adenyl cyclase activator). After incubation at room temperature for 45 minutes, 10 μL of detection buffer was added into each well. The plate was then incubated at room temperature for 1 hour. The plate was then measured in a Synergy H1 hybrid reader (BioTek) with excitation at 340 nm and emission at 665 nm. The results represent at least two independent experiments each in triplicates. EC50 values were determined by nonlinear regression dose-response curve (GraphPad Prism 5).
as §1, with “Cyclic AMP levels were measured by performing the cell-based LANCE cAMP-384 kit assay (PerkinElmer) as previously described 13-14. The assay is based on the competition between the europium-labeled cAMP tracer complex and sample cAMP for binding sites on cAMP-specific antibodies. The antibodies” for “The antibodies”
The LANCE cAMP assay was carried out to measure the functional activities of our synthesized CB2 selective ligands as previously described 14. Briefly, the assay was performed on 384-well plates using CHO cells stably expressing CB2 receptors in the presence of phosphodiesterase inhibitor, RO-20-1724 and adenyl cyclase activator, forskolin.

[2] = target: T2, human CB1 receptors (Homo sapiens, UniProt P21554); test: [3H]CP-55,940 radioligand competition binding assay, CB1; settings: CHO cell membranes, [3H]CP-55,940 displacement
T2 construct: expressed in transfected cells
Method: (§2) Binding assay. The bioassay is carried out using the Perkin Elmer 96-well Top Counter. This bioassay is also known as a competition binding assay and the biological evaluation is to determine the CB receptor binding affinity (Ki) of the screened ligands by displacing [^3H]-CP-55940 (or other radioligands). The brief procedure is given below.
(§3) Perkin Elmer 96-well TopCounter is used at PMLSC and in our laboratory to determine the CB receptor binding affinity (Ki) of the in-silico screened ligands by displacing [^3H]-CP-55,940 (or other radioligands). In competition binding experiments, the tested compound dilutions are carried out in triplicate in TME buffer (25 mM Tris, 5 mM MgCl2, 1 mM EDTA) containing 0.1% (w/v) fatty acid free bovine serum albumin (BSA), pH 7.4. Various concentrations of the tested compound are added in the same volume to 0.5 nM [^3H]CP-55,940. TME buffer and cell membrane preparations expressing CB receptors (2.5 μg per well) are added to a final volume of 200 μL. For the saturation binding experiments, varying concentrations of [^3H]CP-55,940 (0.05-1.5 nM) with or without 2 μM of unlabeled ligands (CP-55,940 or WIN-55,212-2) are incubated with the receptor membrane preparations to determine Kd and nonspecific binding. After the binding suspensions are incubated at 30° C. for 1 hr, the reaction is terminated by rapid filtration through microfiltration plates coated with 0.5% polyethylenimine (Unifilter GF/B filterplate, PerkinElmer) followed by 5 washes with ice cold TME buffer containing 0.5% BSA on a Packard Filtermate Harvester (PerkinElmer). The plates are then dried overnight and 30 μl MicroScint 0 scintillation cocktail are added to each well of the dried filter plates. Then the bound radioactivity is counted using a Perkin Elmer 96-well TopCounter. The Ki is calculated by using nonlinear regression analysis (Prism 5; GraphPad Software Inc., San Diego, Calif.), with the Kd values for [^3H]CP-55,940 determined from saturation binding experiments. This assay is used for determining binding affinity parameters (Ki) of ligand-receptor interactions for the CB receptor.
(§4) The affinities of the synthesized ligands were determined in radioligand binding studies at human CB1 and CB2 receptors using [3H](—)-cis-3-[2-hydroxy-4-(1,1 dimethylheptyl)phenyl]-trans-4-(3-hydroxypropyl) cyclohexanol (CP55,940) as a CB receptor radioligand. As a source for human CB1 and CB2 receptors, membrane preparations of Chinese hamster ovary (CHO) cells stably expressing the respective receptor subtype were utilized (50 μg of protein/vial). CB2 selective ligand SR144528 (CB2 inverse agonist) and CB1 ligand SR141716 (CB1 inverse agonist) were used as positive controls, respectively, along with the tested compounds in bioassays experiments. Only compounds with high CB2 receptor binding potency was chosen to carry out the CB1 binding assay. CB ligand competition binding assay was carried out as described previously in Gertsch, J., et al., Beta-caryophyllene is a dietary cannabinoid. Proc Natl Acad Sci USA 2008, 105 (26), 9099-104. Briefly, non-radioactive (or cold) ligands (synthesized derivatives and reference ligands) were diluted in a binding buffer (50 mM Tris-HCl (pH 7.4), 5 mM MgC12, 2.5 mM EGTA, and 0.1% (w/v) fatty acid free BSA), supplemented with 10% dimethyl sulfoxide and 0.4% methyl cellulose. Each assay plate well contained a total of 200 μL of reaction mixture composed of 5 μg of CB1 (or 2.5 μg CB2) membrane protein, labeled [3H]-CP-55,940 ligand at a final concentration of 2.5 nM, and the unlabeled ligand at its varying dilutions as stated above. Plates were incubated at 30° C. for 1 hour with gentle shaking.
(§5) The reaction was terminated by rapid filtration through Unifilter GF/B filter plates using a Unifilter Cell Harvester (PerkinElmer). After the plate was allowed to dry overnight, 30 μL MicroScint-0 cocktail (PerkinElmer) was added to each well, and the radioactivity was counted using a PerkinElmer TopCounter. […]

[3] = target: T3, human CB2 receptors (Homo sapiens, UniProt P34972); test: [3H]CP-55,940 radioligand competition binding assay, CB2; settings: for pKi: CHO cell membranes, [3H]CP-55,940 displacement
T3 construct: expressed in transfected cells
Method: as §2, §3, §4, §5

T3 sequence (P34972 whole entry): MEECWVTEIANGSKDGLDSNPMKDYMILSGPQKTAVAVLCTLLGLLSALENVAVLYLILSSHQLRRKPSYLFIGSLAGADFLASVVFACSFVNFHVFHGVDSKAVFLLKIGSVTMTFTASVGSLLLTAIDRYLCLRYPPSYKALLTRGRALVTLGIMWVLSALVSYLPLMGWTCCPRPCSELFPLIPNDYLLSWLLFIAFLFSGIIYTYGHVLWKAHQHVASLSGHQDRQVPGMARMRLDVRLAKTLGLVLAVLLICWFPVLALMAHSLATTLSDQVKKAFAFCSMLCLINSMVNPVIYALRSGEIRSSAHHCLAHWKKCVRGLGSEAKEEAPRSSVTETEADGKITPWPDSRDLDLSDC
T2 sequence (P21554 whole entry): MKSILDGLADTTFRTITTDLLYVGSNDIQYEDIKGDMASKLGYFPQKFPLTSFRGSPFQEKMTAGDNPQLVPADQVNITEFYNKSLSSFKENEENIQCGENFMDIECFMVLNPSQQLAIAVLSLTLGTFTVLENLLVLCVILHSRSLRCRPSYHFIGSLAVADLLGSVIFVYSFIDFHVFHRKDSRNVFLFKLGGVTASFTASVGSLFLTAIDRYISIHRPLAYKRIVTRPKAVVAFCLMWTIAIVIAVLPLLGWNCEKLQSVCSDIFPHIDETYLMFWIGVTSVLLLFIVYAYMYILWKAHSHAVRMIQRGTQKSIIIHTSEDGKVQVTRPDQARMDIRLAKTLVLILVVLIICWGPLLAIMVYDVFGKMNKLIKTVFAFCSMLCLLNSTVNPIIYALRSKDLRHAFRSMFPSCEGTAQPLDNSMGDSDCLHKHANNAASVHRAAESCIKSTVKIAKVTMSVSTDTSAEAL
T1 sequence (P34972 whole entry): as the sequence (P34972 whole entry) above

Compound	CB2 functional activity (LANCE cAMP signal) [1]	pKi [2]	SI: selectivity index for CB2, calculated as Ki(CB1)/Ki(CB2) ratio [3]	pKi [3]
SR-144,528 [reference compound]	inverse agonists	–	–	–
CCCCCN(Cc1ccc(N(CC)CC)cc1)C(=O)c1cnc2ccccc2n1 [Compound 39, N-(4-(diethylamino)benzyl)-N-pentylquinoxaline-2-carboxamide]	–	5.73	1	5.73
CCCCCCC(C)(C)c1ccc([C@@H]2C[C@H](O)CC[C@H]2CCCO)c(O)c1 [CP55940, (—)-cis-3-[2-hydroxy-4-(1,1 dimethylheptyl)phenyl]-trans-4-(3-hydroxypropyl) cyclohexanol, reference compound]	inhibit cAMP production	–	–	–
CCN(CC)c1ccc(CN(Cc2cc(OC)c(OC)c(OC)c2)S(=O)(=O)c2ccccc2C)cc1 [Compound 14, N-(4-(diethylamino)benzyl)-2-methyl-N-(3,4,5-trimethoxybenzyl)benzenesulfonamide]	–	6.74	2	6.80
CCN(CC)c1ccc(CN(Cc2cc(OC)c(OC)c(OC)c2)S(=O)(=O)c2cccs2)cc1 [Compound 16, N-(4-(diethylamino)benzyl)-N-(3,4,5-trimethoxybenzyl)thiophene-2-sulfonamide]	–	< 4.70	32	6.19
CCCCCN(Cc1ccc(N(CC)CC)cc1)S(=O)(=O)c1ccc(C=O)cc1 [Compound 38, N-(4-(diethylamino)benzyl)-4-formyl-N-pentylbenzenesulfonamide]	–	5.75	3	6.18
CCN(CC)c1ccc(CN(Cc2ccc3c(c2)OCO3)C(=O)c2cccs2)cc1 [Compound 32, N-(benzo[d][1,3]dioxol-5-ylmethyl)-N-(4-(diethylamino)benzyl)thiophene-2-carboxamide]	–	6.14	2	6.24
CCCCCN(Cc1ccc(N(CC)CC)cc1)C(=O)c1cccs1 [Compound 40, N-(4-(diethylamino)benzyl)-N-pentylthiophene-2-carboxamide]	–	5.61	7	6.44
